Tests used:
ERβ = ERβ (Homo sapiens, UniProt Q92731); conditions: background statement; cited from earlier work
estrogen receptor (ER) = conditions: background statement; cited from earlier work
[1] = Equol productivity of probiotic strains cultured in soybean germ extract (S30); conditions: inoculated into 30% isoflavone-containing soybean germ extract (S30), 37° C., 48 hours
Description: A probiotic strain having the ability to produce equol from a soybean germ extract (S30) containing 30 wt % of isoflavone was selected.
First, a soybean germ extract was prepared using 40 g/L of a soybean germ extract (S30, prepared by Seorim Bio) containing 30 wt % of isoflavone and sterile water. The pH of the soybean germ extract was adjusted to 6.7 using 5M NaOH. The entire soybean germ extract was sterilized by autoclaving at 121° C. for 15 minutes. Microorganisms were activated in rehydrated MRS (Mann Rogosa Sharpe) broth (De Mann et al. 1960) at 37° C. for 20 hours three times, followed by fourth activation in the sterile soybean germ extract at an inoculum level of 5% (v/v). 40 to 400 mL of the sterile soybean germ extract was inoculated with the active culture (5% v/v), and incubated at 37° C. for 24 hours to hydrolyze isoflavone glycosides. The strain activated in the soybean germ extract was used.
In addition, samples were taken at regular time intervals in a time-dependent manner and measured for β-glucosidase activity. […] The sequence of the above screening steps was determined flexibly. That is, strains producing equol were first screened, and then β-glucosidase activity was measured, or strains having high β-glucosidase activity were first screened, and then whether the strains produced equol was examined. […]

ERβ, sequence (Q92731 whole entry): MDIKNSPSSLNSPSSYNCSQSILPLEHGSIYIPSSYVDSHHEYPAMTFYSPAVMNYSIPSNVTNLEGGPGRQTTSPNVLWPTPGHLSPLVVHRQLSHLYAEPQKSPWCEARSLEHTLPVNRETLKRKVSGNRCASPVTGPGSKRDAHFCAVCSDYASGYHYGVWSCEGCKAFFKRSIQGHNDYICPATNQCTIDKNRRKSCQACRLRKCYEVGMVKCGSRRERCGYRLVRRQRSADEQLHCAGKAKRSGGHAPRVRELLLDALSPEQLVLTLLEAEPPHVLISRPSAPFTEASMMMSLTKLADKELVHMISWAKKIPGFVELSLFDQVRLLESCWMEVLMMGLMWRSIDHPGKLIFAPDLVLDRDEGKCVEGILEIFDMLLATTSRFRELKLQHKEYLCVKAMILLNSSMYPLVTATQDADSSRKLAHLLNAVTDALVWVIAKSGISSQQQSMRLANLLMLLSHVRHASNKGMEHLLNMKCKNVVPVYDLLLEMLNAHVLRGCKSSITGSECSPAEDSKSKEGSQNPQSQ

Row | Molecule | affinity for ERβ (ERβ) | ER binding affinity (estrogen receptor (ER)) | equol production / equol productivity in culture supernatant [1]
1 | Oc1ccc([C@H]2COc3cc(O)ccc3C2)cc1 [Equol] | high affinity for ERβ | higher ER binding affinity than daidzein | –
2 | Bifidobacterium longum | – | – | equol was produced
3 | O=c1c(-c2ccc(O)cc2)coc2cc(O)ccc12 [daidzein] | – | exhibits estrogen receptor (ER) binding affinity | –

Source: patent US11805799B2, “Composition for preventing, relieving or treating climacteric disorders comprising lactic acid bacteria and prebiotics” (CELL BIOTECH CO., LTD., priority 2019, dated 2023)
